Remaining activity data for 1 molecule are collected here from PMC11864979, “First-in-class ultralong-target-residence-time p38α inhibitors as a mitosis-targeted therapy for colorectal cancer” (Nature Cancer, 2025).

What all share (assay): selectivity profiling in a panel of 340 wild-type kinases (Reaction Biology Europe)
Holding throughout (format): binding

The target in assay [1] is T1, 340 wild-type kinases (Homo sapiens, UniProt P43250).
T1 construct: purchased Reaction Biology Europe

Assay [2] has as its target T2, 340 wild-type kinases (Homo sapiens, UniProt P41240).
T2 construct: purchased Reaction Biology Europe

For assay [3], the target named is T3, 340 wild-type kinases (Homo sapiens, UniProt P36888).
T3 construct: purchased Reaction Biology Europe
T3 sequence (P36888 27-993): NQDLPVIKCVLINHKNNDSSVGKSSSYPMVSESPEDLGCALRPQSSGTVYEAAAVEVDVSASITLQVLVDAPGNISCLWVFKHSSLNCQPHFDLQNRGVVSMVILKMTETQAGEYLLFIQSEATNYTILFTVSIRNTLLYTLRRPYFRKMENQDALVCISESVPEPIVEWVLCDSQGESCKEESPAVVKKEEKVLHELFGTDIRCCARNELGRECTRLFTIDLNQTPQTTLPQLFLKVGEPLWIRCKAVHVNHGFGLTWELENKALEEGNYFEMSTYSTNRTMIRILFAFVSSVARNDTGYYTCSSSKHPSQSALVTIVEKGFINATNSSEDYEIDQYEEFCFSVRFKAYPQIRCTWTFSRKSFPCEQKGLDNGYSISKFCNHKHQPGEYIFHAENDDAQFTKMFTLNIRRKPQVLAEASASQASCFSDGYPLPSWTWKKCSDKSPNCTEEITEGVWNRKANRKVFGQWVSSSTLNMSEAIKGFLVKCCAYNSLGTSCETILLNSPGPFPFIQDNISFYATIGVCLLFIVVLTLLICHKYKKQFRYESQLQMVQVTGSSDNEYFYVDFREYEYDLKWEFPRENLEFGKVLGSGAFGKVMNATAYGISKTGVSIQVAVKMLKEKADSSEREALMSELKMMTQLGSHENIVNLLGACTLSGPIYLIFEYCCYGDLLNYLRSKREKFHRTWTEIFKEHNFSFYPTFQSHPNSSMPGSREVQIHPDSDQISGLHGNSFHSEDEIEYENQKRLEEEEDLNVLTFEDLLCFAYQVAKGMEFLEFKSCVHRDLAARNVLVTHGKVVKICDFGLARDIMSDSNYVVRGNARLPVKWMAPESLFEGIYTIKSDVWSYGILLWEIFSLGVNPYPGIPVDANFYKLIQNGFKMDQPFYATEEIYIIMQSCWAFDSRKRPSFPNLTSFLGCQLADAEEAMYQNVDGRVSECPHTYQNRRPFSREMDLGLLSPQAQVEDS

In assay [4] the target is T4, 340 wild-type kinases (Homo sapiens, UniProt P29322).
T4 construct: purchased Reaction Biology Europe
T4 sequence (P29322 28-1005): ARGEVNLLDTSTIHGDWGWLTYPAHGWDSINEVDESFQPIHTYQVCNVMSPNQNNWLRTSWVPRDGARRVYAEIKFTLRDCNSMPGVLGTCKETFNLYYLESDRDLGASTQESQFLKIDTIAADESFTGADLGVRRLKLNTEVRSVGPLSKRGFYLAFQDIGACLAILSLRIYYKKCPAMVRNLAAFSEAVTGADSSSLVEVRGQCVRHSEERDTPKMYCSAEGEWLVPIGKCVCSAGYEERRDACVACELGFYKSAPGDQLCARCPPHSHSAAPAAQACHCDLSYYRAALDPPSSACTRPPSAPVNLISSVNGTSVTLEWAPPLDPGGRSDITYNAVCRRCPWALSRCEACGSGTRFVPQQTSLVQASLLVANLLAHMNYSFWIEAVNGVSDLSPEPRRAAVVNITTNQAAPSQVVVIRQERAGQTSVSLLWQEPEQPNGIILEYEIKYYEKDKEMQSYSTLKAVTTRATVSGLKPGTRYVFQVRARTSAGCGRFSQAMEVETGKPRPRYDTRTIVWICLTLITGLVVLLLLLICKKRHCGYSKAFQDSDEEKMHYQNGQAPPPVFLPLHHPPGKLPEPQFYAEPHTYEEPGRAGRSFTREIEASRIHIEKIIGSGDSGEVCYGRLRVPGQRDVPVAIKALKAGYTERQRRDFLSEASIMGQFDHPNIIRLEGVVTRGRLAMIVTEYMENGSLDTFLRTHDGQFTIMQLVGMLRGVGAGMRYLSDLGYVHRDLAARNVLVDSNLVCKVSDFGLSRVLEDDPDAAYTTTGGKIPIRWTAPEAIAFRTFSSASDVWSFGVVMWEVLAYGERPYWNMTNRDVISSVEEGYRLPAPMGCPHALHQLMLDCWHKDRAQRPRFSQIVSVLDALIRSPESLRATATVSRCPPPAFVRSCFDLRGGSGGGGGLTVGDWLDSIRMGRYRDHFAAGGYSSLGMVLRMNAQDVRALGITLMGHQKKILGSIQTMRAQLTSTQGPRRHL

Assay [5] addresses T5, 340 wild-type kinases (Homo sapiens, UniProt Q16513).
T5 construct: purchased Reaction Biology Europe

For assay [6], the target named is T6, 340 wild-type kinases (Homo sapiens, UniProt P51817).
T6 construct: purchased Reaction Biology Europe
T6 sequence (P51817 1-358): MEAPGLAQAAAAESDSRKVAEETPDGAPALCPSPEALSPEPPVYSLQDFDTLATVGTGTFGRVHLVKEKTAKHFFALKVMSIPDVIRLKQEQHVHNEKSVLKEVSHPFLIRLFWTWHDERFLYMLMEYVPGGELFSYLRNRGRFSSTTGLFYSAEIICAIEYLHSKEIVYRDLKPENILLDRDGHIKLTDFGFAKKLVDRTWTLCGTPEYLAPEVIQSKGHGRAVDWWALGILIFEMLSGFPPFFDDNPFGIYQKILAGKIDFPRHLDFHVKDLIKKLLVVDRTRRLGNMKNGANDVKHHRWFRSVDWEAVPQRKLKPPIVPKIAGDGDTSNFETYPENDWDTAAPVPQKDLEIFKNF

Read-outs that look alike come from different tables or passages of the source.

T1 sequence (P43250 whole entry): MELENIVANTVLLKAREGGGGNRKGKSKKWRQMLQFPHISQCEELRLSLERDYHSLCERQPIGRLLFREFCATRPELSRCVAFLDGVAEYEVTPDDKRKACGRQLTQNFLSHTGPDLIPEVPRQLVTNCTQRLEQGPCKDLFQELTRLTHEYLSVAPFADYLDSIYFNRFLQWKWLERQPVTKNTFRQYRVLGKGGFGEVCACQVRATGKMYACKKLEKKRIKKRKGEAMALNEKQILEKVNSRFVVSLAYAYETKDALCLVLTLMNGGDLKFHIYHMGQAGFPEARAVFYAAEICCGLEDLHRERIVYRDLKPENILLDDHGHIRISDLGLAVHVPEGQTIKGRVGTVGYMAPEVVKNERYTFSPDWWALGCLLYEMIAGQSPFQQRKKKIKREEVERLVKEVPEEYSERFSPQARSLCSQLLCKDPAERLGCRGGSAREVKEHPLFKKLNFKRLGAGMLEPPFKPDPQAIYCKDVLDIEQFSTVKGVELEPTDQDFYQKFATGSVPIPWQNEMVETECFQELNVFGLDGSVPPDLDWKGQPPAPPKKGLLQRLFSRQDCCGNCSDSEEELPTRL
T2 sequence (P41240 whole entry): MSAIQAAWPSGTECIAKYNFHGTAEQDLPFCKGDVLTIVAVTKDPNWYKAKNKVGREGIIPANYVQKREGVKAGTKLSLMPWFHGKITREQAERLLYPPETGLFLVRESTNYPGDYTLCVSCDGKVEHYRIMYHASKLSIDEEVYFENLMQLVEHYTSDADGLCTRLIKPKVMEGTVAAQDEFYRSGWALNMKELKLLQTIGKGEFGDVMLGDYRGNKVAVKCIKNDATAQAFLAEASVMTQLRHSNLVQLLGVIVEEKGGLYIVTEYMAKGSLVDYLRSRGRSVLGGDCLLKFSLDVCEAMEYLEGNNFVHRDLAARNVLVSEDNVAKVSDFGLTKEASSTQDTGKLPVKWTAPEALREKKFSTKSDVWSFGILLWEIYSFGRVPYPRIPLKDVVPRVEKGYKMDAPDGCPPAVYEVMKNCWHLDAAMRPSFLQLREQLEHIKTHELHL
T5 sequence (Q16513 whole entry): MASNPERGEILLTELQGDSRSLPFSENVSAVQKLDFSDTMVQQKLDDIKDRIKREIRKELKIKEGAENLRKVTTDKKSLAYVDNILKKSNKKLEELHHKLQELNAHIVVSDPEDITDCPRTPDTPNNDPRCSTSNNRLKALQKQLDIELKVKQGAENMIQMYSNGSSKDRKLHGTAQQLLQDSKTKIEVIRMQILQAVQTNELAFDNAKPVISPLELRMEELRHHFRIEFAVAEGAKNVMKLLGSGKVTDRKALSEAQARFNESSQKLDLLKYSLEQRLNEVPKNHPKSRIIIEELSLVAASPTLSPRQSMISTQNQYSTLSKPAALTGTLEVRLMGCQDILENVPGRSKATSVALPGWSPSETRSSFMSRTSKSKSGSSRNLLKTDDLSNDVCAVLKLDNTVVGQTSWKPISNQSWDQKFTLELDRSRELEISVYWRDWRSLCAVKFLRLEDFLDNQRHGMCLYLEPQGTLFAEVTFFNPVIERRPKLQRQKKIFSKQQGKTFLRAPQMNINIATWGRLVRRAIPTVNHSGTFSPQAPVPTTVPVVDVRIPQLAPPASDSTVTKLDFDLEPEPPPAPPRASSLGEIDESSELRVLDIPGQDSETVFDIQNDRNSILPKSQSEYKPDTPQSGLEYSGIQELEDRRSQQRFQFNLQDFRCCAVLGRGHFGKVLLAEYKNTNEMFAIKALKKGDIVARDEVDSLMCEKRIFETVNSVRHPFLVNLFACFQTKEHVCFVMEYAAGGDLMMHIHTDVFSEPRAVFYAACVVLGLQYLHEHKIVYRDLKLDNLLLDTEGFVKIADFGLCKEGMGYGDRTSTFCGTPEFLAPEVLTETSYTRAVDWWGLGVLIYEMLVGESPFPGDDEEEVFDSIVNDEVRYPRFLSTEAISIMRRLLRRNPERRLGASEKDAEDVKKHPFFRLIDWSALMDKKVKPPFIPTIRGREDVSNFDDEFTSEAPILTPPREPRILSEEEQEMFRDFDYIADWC

Turning to `CNC(=O)c1ccc2c(c1)C(=O)c1ccc(Nc3ccc(F)c(NC(=O)C4CC4)c3)cc1CC2` [Compound 2015], the remaining activity at 0.2 µM on 340 wild-type kinases [1] (0.2 µM 2015, read-out: GRK6 residual activity) was determined as 111%; on 340 wild-type kinases [1] (GRK6, 0.2 µM, read-out: residual activity) it was 111%; at 340 wild-type kinases [2] (0.2 µM 2015, read-out: CSK residual activity) it was 114%; on 340 wild-type kinases [2] (CSK, 0.2 µM, read-out: residual activity), 114%; at 340 wild-type kinases [3] (0.2 µM 2015, read-out: FLT3 residual activity), 84.5%; on 340 wild-type kinases [3] (FLT3, 0.2 µM, read-out: residual activity), 84.5%. Also, the remaining activity at 0.2 µM turned out to be 98.5% on 340 wild-type kinases [4] (0.2 µM 2015, read-out: EPHA8 residual activity); 98.5% at 340 wild-type kinases [4] (EPHA8, 0.2 µM, read-out: residual activity); 89.2% on 340 wild-type kinases [5] (0.2 µM 2015, read-out: PRK2 residual activity); 89.2% at 340 wild-type kinases [5] (PRK2, 0.2 µM, read-out: residual activity); 107% at 340 wild-type kinases [6] (0.2 µM 2015, read-out: PRKX residual activity); 107% on 340 wild-type kinases [6] (PRKX, 0.2 µM, read-out: residual activity). Further, the remaining activity at 1 µM at 340 wild-type kinases [1] (1 µM 2015, read-out: GRK6 residual activity) is 110%; on 340 wild-type kinases [1] (GRK6, 1 µM, read-out: residual activity), 110%; at 340 wild-type kinases [2] (1 µM 2015, read-out: CSK residual activity), 93.1%; on 340 wild-type kinases [2] (CSK, 1 µM, read-out: residual activity) it was 93.1%; on 340 wild-type kinases [3] (1 µM 2015, read-out: FLT3 residual activity), 80%; on 340 wild-type kinases [3] (FLT3, 1 µM, read-out: residual activity), 80%. The remaining activity at 1 µM at 340 wild-type kinases [4] (1 µM 2015, read-out: EPHA8 residual activity) came to 95.3%; on 340 wild-type kinases [4] (EPHA8, 1 µM, read-out: residual activity) it was 95.3%; at 340 wild-type kinases [5] (1 µM 2015, read-out: PRK2 residual activity), 91.1%; at 340 wild-type kinases [5] (PRK2, 1 µM, read-out: residual activity) it was 91.1%; at 340 wild-type kinases [6] (1 µM 2015, read-out: PRKX residual activity), 97.1%; on 340 wild-type kinases [6] (PRKX, 1 µM, read-out: residual activity), 97%.
